Numbers after ± are expanded uncertainties.
Assay: wn = mass fraction of the nth substance listed
Settings: Wilhelmy plate method

| SMILES | surface tension liquid-gas (293.2 K, w1 = 0.2) [mN/m] | surface tension liquid-gas (293.2 K, w1 = 0.25) [mN/m] | surface tension liquid-gas (293.2 K, w1 = 0.3) [mN/m] | surface tension liquid-gas (303.2 K, w1 = 0.2) [mN/m] | surface tension liquid-gas (303.2 K, w1 = 0.25) [mN/m] | surface tension liquid-gas (303.2 K, w1 = 0.3) [mN/m] | surface tension liquid-gas (313.2 K, w1 = 0.2) [mN/m] | surface tension liquid-gas (313.2 K, w1 = 0.25) [mN/m] | surface tension liquid-gas (313.2 K, w1 = 0.3) [mN/m] | surface tension liquid-gas (323.2 K, w1 = 0.2) [mN/m] | surface tension liquid-gas (323.2 K, w1 = 0.25) [mN/m] | surface tension liquid-gas (323.2 K, w1 = 0.3) [mN/m] |
| --- | --- | --- | --- | --- | --- | --- | --- | --- | --- | --- | --- | --- |
| OCCNCCO [diethanolamine] + O | 65.1 ± 2 | 64.6 ± 2 | 62.8 ± 2 | 64.4 ± 2 | 62.7 ± 2 | 61.3 ± 2 | 63.9 ± 2 | 61.8 ± 2 | 60.4 ± 2 | 61.8 ± 2 | 59.6 ± 2 | 58.2 ± 2 |
| NCCO [2-aminoethan-1-ol] + O | 62.6 ± 2 | 61.2 ± 2 | 60.3 ± 2 | 61.8 ± 2 | 60.6 ± 2 | 59.5 ± 2 | 60.2 ± 2 | 59.2 ± 2 | 58 ± 2 | 58.7 ± 2 | 57.7 ± 2 | 56.5 ± 2 |
